Experimental data: ChEMBL document CHEMBL1129881 (Bioorg Med Chem Lett, 1997)

Target: Vasopressin V2 receptor (Sus scrofa, UniProt P32307)
Test: Tested for the inhibition to V2 subtype receptor using [3H]- (VS2) as radioligand at 3 nM and arginine-vasopressin at 2 uM in LLCPKI cells
Type: cell-based

Vasopressin V2 receptor, sequence (P32307 whole entry): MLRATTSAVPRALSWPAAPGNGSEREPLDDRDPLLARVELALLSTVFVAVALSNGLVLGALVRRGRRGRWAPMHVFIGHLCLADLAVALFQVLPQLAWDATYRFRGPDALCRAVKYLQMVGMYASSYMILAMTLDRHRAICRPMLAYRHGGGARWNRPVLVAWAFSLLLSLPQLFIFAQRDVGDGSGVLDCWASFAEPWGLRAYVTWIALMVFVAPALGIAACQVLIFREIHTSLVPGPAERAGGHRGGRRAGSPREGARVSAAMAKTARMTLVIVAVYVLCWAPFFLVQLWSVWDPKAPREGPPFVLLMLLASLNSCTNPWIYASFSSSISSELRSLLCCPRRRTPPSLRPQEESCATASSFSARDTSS

Molecule `NC(=O)CC[C@@H]1NC(=O)[C@H](Cc2ccccc2)NC(=O)[C@H](Cc2ccc(O)cc2)NC(=O)[C@@H](N)CSSSC[C@@H](C(=O)N2CCC[C@H]2C(=O)N[C@@H](CCCN=C(N)N)C(=O)NCC(N)=O)NC(=O)[C@H](CC(N)=O)NC1=O` has an IC50 of 9.5 nM.
